One data set has as its system fAβ-lesioned mice. As to the kind of experiment: Rotarod test in fAβ-lesioned mice. In kind it is in vivo. The settings on record: FIG. 6; for riding time in rotarod test: 10 mg/kg, fAβ-lesioned mice; for performance of learning: fAβ-induced memory-deficit mice.
Data set [1] concerns undifferentiated PC12 cells. As to the kind of experiment: Neurite outgrowth on undifferentiated PC12 cells. Particulars: FIG. 4. In kind it is cell-based.
In another data set the test system is mice. As to the kind of experiment: Animal model: memory and toxicity in mice. In kind it is in vivo. Particulars: 1 to 100 mg/kg, preferable 1 to 10 mg/kg, i.p. daily; for toxicity: mice.
A further data set deals with neuron cells. As to the kind of experiment: Neuroprotection of neuron cells against fAβ. In kind it is cell-based. Particulars: for protection of neuron cells from zinc-induced fAβ: FIGS. 3A-B. How it is done: FIGS. 3A-B show compound C12 acting as a neuroprotective agent targeting fAβ.
(§1) Only compound C12 was effective toward zinc-free aggregates (FIG. 3B). […] Mice were assessed for the total duration of movement (FIG. 7A) and total duration of distance (FIG. 7B) to climb onto the hidden platform; and also quantified the appearance to target zone (FIG. 7C) indicating the relative time (compared to total time in swimming) to entry into a zone around the hidden platform; and for average swimming velocity (FIG. 7D) to discriminate enhanced memory from enhanced motor activity.

For a further data set, the target named is preformed Aβ aggregates (Homo sapiens, UniProt P05067). Briefly: Dissolution of preformed Aβ aggregates. In kind it is biochemical. Particulars: FIG. 1B and FIG. 2.
Data set [2] concerns memory-deficit fAβ-lesioned mice. Briefly: GAP43 level and fAβ level in memory-deficit fAβ-lesioned mice. In kind it is in vivo. Particulars: FIG. 8.
The test system is the same in data set [3]. Briefly: Morris water maze test in memory-deficit fAβ-lesioned mice. It is filed as in vivo. Particulars: FIGS. 7A-D. The procedure: FIGS. 7A-D show the results of Morris water maze test.
as §1

A further data set concerns the target Aβ (Homo sapiens, UniProt P05067). Briefly: Aβ aggregation / fAβ formation, microscopy analysis after Congo red staining. It is filed as biochemical.

Sequence of Aβ (P05067 672-711 limits assumed): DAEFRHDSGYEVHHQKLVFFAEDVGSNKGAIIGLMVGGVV
Sequence of preformed Aβ aggregates (P05067 672-711 limits assumed): as above

For `OCCCCCCCCCCCc1ccc2cccc(O)c2n1` [B3, 2-(11-hydroxyundecyl)quinolin-8-ol], in the data set on fAβ-lesioned mice, the “riding time in rotarod test” value is “increased riding time” and the performance of learning result is given as “improved performance of learning”. Besides, in data set [1], the neurite outgrowth entry is listed as “induction of neurite outgrowth”. Besides, in the data set with mice, the memory of mice entry is given as “improve memory of mice” and the toxicity result is listed as “without causing significant toxicity”.

Take `Oc1c(I)cc(Cl)c2cccnc12` [CQ, reference compound]: the “protection of neuron cells from zinc-induced fAβ” value with neuron cells is given as “protected”.

Turning to `COc1cccc2ccc(CCCCCCCCCCCO)nc12` [C3, 11-(8-methoxyquinolin-2-yl)undecan-1-ol], the neurite outgrowth result in data set [1] is “induction of neurite outgrowth”.

In the case of `COc1ccc(Cl)c2ccc(CCCCCCCCCCCO)nc12` [C12, 11-(5-chloro-8-methoxyquinolin-2-yl)undecan-1-ol], in the data set with fAβ-lesioned mice, the “riding time in rotarod test” value is “increased riding time” and the performance of learning entry is “improved performance of learning”. Besides, the “dissolution of preformed Aβ aggregates” value at preformed Aβ aggregates is on record as “dissolved preformed Aβ aggregates”. In data set [2], the GAP43 level entry was “increase in GAP43 level” and the fAβ level result is “decrease in fAβ level”. Further, the “effectiveness toward zinc-free aggregates” value with neuron cells (zinc-free aggregates, FIG. 3B) is listed as “effective”. Moreover, in the data set with neuron cells, the “protection of neuron cells from zinc-induced fAβ” value is “protected”. Also, in the data set with mice, the memory of mice entry is “improve memory of mice” and the toxicity entry is recorded as “without causing significant toxicity”. Also, the “learning in the Morris water maze test” value in data set [3] is “improved learning”. Further, the “polymerization of Aβ” value at Aβ (in the absence of zinc ions, FIG. 2) is reported as “inhibiting polymerization of Aβ”. Moreover, the Aβ aggregation entry on Aβ (in the presence or absence of zinc ions, Congo red staining, FIG. 1A) is listed as “inhibited Aβ aggregation”.

As to `CCOc1cccc2ccc(CCCCCCCCCCCO)nc12` [D3, 11-(8-ethoxyquinolin-2-yl)undecan-1-ol], the neurite outgrowth entry in data set [1] is listed as “induction of neurite outgrowth”.
